Experimental data: the Kinase Knowledgebase extract (Sharma et al. 2016)

Legend:
[1] = target: EGFR (human), P00533 [WT]
[2] = test system: EGFR (Human), P00533 [T790M/L858R]; details: nci-h1975
[3] = test system: EGFR (Human), P00533 [Assessment of Proliferation in EGFR DelE746_A750 Mutant Expressing HCC827 Cells]
[4] = test system: EGFR (human), P00533 [WT]; details: a431

EGFR (Human), P00533 [Assessment of Proliferation in EGFR DelE746_A750 Mutant Expressing HCC827 Cells], sequence (P00533 whole entry, looked up, stated change not applied): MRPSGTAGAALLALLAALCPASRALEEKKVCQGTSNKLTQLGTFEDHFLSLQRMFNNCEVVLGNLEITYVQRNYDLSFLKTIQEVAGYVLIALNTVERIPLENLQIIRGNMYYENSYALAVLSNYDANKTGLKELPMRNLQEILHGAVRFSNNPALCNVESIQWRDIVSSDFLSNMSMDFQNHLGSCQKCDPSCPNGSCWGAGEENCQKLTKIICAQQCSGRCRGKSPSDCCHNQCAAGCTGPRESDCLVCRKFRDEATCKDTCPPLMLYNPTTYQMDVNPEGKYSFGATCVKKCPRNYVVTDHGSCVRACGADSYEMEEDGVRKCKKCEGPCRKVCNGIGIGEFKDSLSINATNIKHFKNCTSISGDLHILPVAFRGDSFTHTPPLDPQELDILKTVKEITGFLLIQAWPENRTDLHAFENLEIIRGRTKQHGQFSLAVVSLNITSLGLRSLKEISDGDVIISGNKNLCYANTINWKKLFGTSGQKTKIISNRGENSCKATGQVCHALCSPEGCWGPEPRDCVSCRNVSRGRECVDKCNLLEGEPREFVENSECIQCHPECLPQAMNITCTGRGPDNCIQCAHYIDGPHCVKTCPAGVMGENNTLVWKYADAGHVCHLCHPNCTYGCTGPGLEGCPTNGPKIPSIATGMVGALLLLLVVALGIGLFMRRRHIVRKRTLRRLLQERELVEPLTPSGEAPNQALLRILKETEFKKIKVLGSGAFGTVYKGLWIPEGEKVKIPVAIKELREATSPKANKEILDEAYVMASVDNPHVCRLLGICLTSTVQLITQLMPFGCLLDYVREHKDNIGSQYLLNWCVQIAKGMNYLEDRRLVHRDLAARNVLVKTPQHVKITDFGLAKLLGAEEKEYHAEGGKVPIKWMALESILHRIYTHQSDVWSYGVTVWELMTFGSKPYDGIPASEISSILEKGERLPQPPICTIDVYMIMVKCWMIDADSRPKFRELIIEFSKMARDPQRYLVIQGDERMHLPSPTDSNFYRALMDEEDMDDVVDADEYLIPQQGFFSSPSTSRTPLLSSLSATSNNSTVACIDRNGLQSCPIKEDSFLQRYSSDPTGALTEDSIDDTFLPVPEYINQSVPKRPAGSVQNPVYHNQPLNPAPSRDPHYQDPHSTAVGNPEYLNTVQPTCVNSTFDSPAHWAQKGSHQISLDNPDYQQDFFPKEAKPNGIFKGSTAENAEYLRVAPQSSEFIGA
EGFR (human), P00533 [WT], sequence (P00533 whole entry, looked up): as the sequence (P00533 whole entry, looked up, stated change not applied) above
EGFR (Human), P00533 [T790M/L858R], sequence (P00533 whole entry T790M/L858R, looked up): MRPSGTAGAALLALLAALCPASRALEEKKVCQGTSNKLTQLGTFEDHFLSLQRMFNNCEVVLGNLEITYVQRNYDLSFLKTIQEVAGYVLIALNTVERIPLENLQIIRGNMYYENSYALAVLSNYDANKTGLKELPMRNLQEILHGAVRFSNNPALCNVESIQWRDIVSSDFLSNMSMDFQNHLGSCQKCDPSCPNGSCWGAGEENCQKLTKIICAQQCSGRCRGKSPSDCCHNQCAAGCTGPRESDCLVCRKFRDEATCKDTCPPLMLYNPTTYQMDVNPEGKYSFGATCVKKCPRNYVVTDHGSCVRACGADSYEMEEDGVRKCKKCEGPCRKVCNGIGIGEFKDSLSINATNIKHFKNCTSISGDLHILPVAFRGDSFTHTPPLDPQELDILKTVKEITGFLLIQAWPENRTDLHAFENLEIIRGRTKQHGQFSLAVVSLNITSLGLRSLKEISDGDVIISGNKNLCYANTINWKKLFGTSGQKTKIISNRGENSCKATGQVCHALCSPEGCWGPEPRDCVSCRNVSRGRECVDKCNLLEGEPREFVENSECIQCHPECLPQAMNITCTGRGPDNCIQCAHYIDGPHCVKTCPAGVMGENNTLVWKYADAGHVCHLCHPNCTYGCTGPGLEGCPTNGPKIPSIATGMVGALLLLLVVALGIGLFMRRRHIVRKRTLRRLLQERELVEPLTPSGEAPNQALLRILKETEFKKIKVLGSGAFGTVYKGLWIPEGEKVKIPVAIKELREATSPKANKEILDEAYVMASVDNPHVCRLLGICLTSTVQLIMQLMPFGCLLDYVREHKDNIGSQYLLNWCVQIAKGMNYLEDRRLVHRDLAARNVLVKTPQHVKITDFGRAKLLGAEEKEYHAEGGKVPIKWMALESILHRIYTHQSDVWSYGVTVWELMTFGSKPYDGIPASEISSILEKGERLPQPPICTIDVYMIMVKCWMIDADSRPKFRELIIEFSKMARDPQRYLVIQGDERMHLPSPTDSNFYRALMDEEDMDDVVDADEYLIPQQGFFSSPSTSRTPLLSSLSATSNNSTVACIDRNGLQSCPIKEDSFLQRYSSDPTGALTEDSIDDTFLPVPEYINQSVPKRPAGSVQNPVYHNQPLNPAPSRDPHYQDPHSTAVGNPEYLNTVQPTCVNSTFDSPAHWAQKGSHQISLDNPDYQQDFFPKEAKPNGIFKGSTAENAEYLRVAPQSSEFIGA

Row | SMILES | IC50 [1] [nM] | GI50 [3] [nM] | GI50 [2] [nM] | GI50 [4] [nM]
1 | C=CC(=O)Nc1cccc(Oc2nc(Nc3ccc(N4CCN(C)CC4)cc3)nc3ccoc23)c1 |  | ≤ 50 | ≤ 50 | 100 to 1000
2 | C=CC(=O)Nc1cccc(Oc2nc(Nc3ccc(N4CCN(C(C)C)CC4)cc3)nc3ccsc23)c1 |  | ≤ 50 | ≤ 50 | 100 to 1000
3 | C=CC(=O)Nc1cccc(Nc2nc(Nc3ccc(N4CCN(C)CC4)cc3)nc3ccsc23)c1 | 100 to 1000 | ≤ 50 | ≤ 50 | 
4 | C=CC(=O)Nc1cccc(Oc2nc(Nc3ccc(N4CCN(CC)CC4)cc3)nc3ccsc23)c1 |  | ≤ 50 | ≤ 50 | 100 to 1000
5 | C=CC(=O)Nc1cccc(Oc2nc(Nc3ccc(CN4CCC(N5CCOCC5)CC4)cc3)nc3ccsc23)c1 |  | ≤ 50 | ≤ 50 | 
6 | C=CC(=O)Nc1cccc(Oc2nc(Nc3ccc(CN4CCN(C5CCN(C)CC5)CC4)cc3)nc3ccsc23)c1 |  | ≤ 50 | ≤ 50 | 
7 | C=CC(=O)Nc1cccc(Oc2nc(Nc3ccc(C=CCN4CCCCC4)cc3)nc3ccsc23)c1 |  | ≤ 50 | 50 to 100 | 
8 | C=CC(=O)Nc1cccc(Oc2nc(Nc3ccc(CP(=O)(OC)OC)cc3)nc3ccsc23)c1 |  | ≤ 50 | ≤ 50 | 
9 | C=CC(=O)Nc1cccc(Oc2nc(Nc3ccc(S(C)(=O)=O)cc3)nc3ccsc23)c1 |  | 50 to 100 | ≤ 50 | 
10 | C=CC(=O)Nc1cccc(Oc2nc(Nc3ccc(C(C)N4CCN(CC)CC4)cc3)nc3ccsc23)c1 (stereo unspecified) |  | ≤ 50 | ≤ 50 | 
11 | C=CC(=O)Nc1cccc(Oc2nc(Nc3ccc(N4CCN(C)CC4)c(F)c3OC)nc3ccsc23)c1 |  | 50 to 100 | ≤ 50 | 
12 | C=CC(=O)Nc1cccc(Oc2nc(Nc3ccc(C(=O)NC4CCN(C(C)C)CC4)cc3)nc3ccsc23)c1 |  | ≤ 50 | ≤ 50 | 100 to 1000
13 | C=CC(=O)Nc1cccc(Oc2nc(Nc3ccc(NC4CCN(C)CC4)c(F)c3)nc3ccsc23)c1 |  | ≤ 50 | ≤ 50 | 
14 | C=CC(=O)Nc1cccc(Oc2nc(Nc3ccc(N4CCN(CCF)CC4)cc3)nc3ccsc23)c1 |  | ≤ 50 | 50 to 100 | 
15 | C=CC(=O)Nc1cccc(Oc2nc(Nc3ccc(N4CCC(N5CCCC5)CC4)c(Cl)c3)nc3ccsc23)c1 |  | ≤ 50 | ≤ 50 | 
16 | C=CC(=O)Nc1cccc(Oc2nc(Nc3ccc(CN(C)C)cc3)nc3ccsc23)c1 |  | ≤ 50 | ≤ 50 | 100 to 1000
17 | C=CC(=O)Nc1cccc(Oc2nc(Nc3ccc(C(=O)NC4CCN(C)CC4)cc3)nc3ccsc23)c1 |  | ≤ 50 | ≤ 50 | 
18 | C=CC(=O)Nc1cccc(Oc2nc(Nc3ccc(-n4ccnc4)cc3)nc3ccsc23)c1 |  | 50 to 100 | ≤ 50 | 

Second part, led by results:

Row | IC50 [1] [nM] | GI50 [3] [nM] | SMILES | GI50 [2] [nM] | GI50 [4] [nM]
19 | 100 to 1000 | ≤ 50 | C=CC(=O)Nc1cccc(Oc2nc(Nc3ccc(N4CCC(N5CCCCC5)CC4)cc3)nc3ccsc23)c1 | ≤ 50 | 
20 |  | ≤ 50 | C=CC(=O)Nc1cccc(Oc2nc(Nc3ccc(N4CCN(C5CCCCC5)CC4)cc3)nc3ccsc23)c1 | ≤ 50 | 100 to 1000
21 |  | ≤ 50 | C=CC(=O)Nc1cccc(Oc2nc(Nc3ccc(N4CCN(C(C)C)CC4)cc3)nc3ccoc23)c1 | ≤ 50 | 100 to 1000
22 |  | ≤ 50 | C=CC(=O)Nc1cccc(Oc2nc(Nc3ccc(N4CCC(C(=O)N(C)C)CC4)cc3)nc3ccsc23)c1 | ≤ 50 | 
23 |  | ≤ 50 | C=CC(=O)Nc1cccc(Oc2nc(Nc3ccc(C(=O)NCCN4CCCC4)cc3OC)nc3ccsc23)c1 | 50 to 100 | 
24 |  | ≤ 50 | C=CC(=O)Nc1cccc(Oc2nc(Nc3ccc(N4CCC(n5ccnc5)CC4)cc3)nc3ccsc23)c1 | ≤ 50 | 
25 |  | ≤ 50 | C=CC(=O)Nc1cccc(Nc2nc(Nc3ccc(N4CCN(CC)CC4)cc3)nc3ccsc23)c1 | ≤ 50 | 
26 |  | ≤ 50 | C=CC(=O)Nc1cccc(Oc2nc(Nc3ccc(CN4CCN(C)CC4)nc3)nc3ccsc23)c1 | 50 to 100 | 
